# Test results from PubChem BioAssay AID743118 (The Scripps Research Institute Molecular Screening Center, 2013).
# What was measured:
# [1] = target: Acyl-protein thioesterase 1 (Homo sapiens) (UniProt O75608); experiment: APT1/APT2 inhibition IC50 by competitive ABPP – cell lysate, HeLa soluble proteome, fluorescence gel, in vitro, late-stage follow-up (AID 743118); details: gel-based ABPP FP-Rh fluorescence, LYPLA1
# [2] = target: Acyl-protein thioesterase 2 (Homo sapiens) (UniProt O95372); experiment: as above; details: gel-based ABPP FP-Rh fluorescence, LYPLA2
# Chain of Acyl-protein thioesterase 2 (Homo sapiens) (O95372 whole entry, looked up): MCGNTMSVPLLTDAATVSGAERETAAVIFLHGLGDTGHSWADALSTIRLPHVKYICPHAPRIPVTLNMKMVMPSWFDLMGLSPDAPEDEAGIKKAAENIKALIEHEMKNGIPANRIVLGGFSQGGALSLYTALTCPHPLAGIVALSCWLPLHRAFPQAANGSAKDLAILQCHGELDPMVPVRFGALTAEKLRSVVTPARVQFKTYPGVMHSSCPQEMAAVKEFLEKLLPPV
# Chain of Acyl-protein thioesterase 1 (Homo sapiens) (O75608 whole entry, looked up): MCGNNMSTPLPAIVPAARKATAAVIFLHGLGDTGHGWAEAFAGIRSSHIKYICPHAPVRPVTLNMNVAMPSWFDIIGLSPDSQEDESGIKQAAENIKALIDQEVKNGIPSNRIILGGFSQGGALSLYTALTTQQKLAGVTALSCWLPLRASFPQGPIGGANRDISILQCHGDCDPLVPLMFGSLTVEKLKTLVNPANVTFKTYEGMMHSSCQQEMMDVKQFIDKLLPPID
SMILES,IC50 [1],IC50 [2]
O=C(ON1C(=O)C2CN(C(=O)N3CCCC3)CCN2C1=O)N1CCC(CCc2ccc(Cl)cc2)CC1 (stereo not given),225 nM,384 nM
O=C(ON1C(=O)C2CN(C(=O)c3ccc(Br)cc3)CCN2C1=O)N1CCC(CCc2ccc(Cl)cc2)CC1 (stereo not given),306 nM,726 nM

# These reach a lower IC50 [1]. Values come first.
IC50 [1],IC50 [2],SMILES
154 nM,258 nM,O=C(ON1C(=O)C2CN(C(=O)N3CCCCC3)CCN2C1=O)N1CCC(CCc2ccc(Cl)cc2)CC1 (stereo not given)
122 nM,245 nM,O=C(ON1C(=O)C2CN(C(=O)N3CCOCC3)CCN2C1=O)N1CCC(CCc2ccc(Cl)cc2)CC1 (stereo not given)
92 nM,217 nM,CC(C)(C)CC(=O)N1CCN2C(=O)N(OC(=O)N3CCC(CCc4ccc(Cl)cc4)CC3)C(=O)C2C1 (stereo not given)
